The source of these data is ChEMBL document CHEMBL1146161, “Synthesis and anti-HIV properties of new hydroxyquinoline-polyamine conjugates on cells infected by HIV-1 LAV and HIV-1 BaL viral strains” (Bioorg Med Chem Lett, 2006).

Active and inactive are the calls of the source. No cut-off for these calls is given here.

Series [1] has as its system Human immunodeficiency virus 1. Description: Antiviral activity against HIV1 LAV in PBMC. The series is classed as functional, organism-based. Conditions: for EC50: Human immunodeficiency virus 1, LAV.
The subject of series [2] is Human immunodeficiency virus 1. As to the kind of experiment: Antiviral activity against HIV1 BaL in PBMC. The series is classed as functional, organism-based. The note with it: for EC50: Human immunodeficiency virus 1, BaL.
Series [3] is described as follows: Cytotoxicity against PBMC. The note with it: human. It counts as cell-based.

As for `Oc1ccc(CN2CCN(Cc3ccc(O)c4ncccc34)CC2)c2cccnc12`, the result in series [1] and in series [2] was inactive. Further, the CC50 in series [3] was > 10 µM.

As for `c1cc(CN2CCCNCCNCCCNCC2)ccc1CN1CCCNCCNCCCNCC1` [PLERIXAFOR], the EC50 in series [1] amounted to 470 nM. Moreover, the result in series [2] was inactive. Further, the CC50 in series [3] was > 10 µM.

In turn, `Oc1ccc(CN2CCCN(Cc3ccc(O)c4ncccc34)CCNCCCNCC2)c2cccnc12` gave an EC50 in series [1] of 4100 nM. Besides, the Activity result in series [2] is “Toxic”. The compound further displayed a CC50 in series [3] of 8 µM.

Regarding `Oc1c(I)cc(Cl)c2cccnc12` [CLIOQUINOL], the outcome in series [1] and in series [2] was inactive. This compound also returned a CC50 in series [3] of 2 µM.

With `Oc1ccc(CN2CCCNCCCNCCNCCC2)c2cccnc12`, the results for the EC50 in series [1] and in series [2] were 1500 nM and 1.25 µM, respectively. Also, in series [3], the CC50 was > 10 µM.

In the case of `c1cc(CN2CCCNCCNCCCNCC2)cc(CN2CCCNCCNCCCNCC2)c1`, it took 50 nM to reach a half-maximal effect in series [1] (EC50). The outcome in series [2] was inactive. Besides, the CC50 in series [3] is > 10 µM.

Consider `Oc1ccc(CN2CCCNCCN(Cc3ccc(CN4CCCNCCNCCCNCC4)cc3)CCCNCC2)c2cccnc12`, for which the figures for the EC50 in series [1] and in series [2] were 700 nM and 3.5 µM, respectively. The CC50 in series [3] is > 10 µM.

As to `Oc1ccc(CNCCCNCc2ccc(O)c3ncccc23)c2cccnc12`, the outcome in series [1] and in series [2] was inactive. In addition, in series [3], the CC50 is > 10 µM.

`Oc1ccc(CCl)c2cccnc12` showed an EC50 in series [1] of 5100 nM. For the same compound, the outcome in series [2] was inactive. In series [3], the CC50 was > 10 µM.

Take `Oc1ccc(CN2CCCNCCNCCCNCC2)c2cccnc12`: the EC50 is 4100 nM in series [1] and 4.35 µM in series [2]. Further, in series [3], the CC50 is > 10 µM.

As for `Oc1ccc(CNCc2ccc(CNCc3ccc(O)c4ncccc34)cc2)c2cccnc12`, the outcome in series [1] and in series [2] was inactive. Besides, in series [3], the CC50 is > 10 µM.

Usually CC50 stands for the concentration at which the toxic effect on the cells reaches its halfway point. A low value points to harm at low concentration. As a reminder, the EC50 is the concentration at which the effect is half-maximal. Lower therefore signals greater potency.
